Test results reported in patent publication US20250195496A1, “AVPR1A BLOCKADE TO REDUCE SOCIAL ISOLATION-INDUCED ANXIETY IN FEMALES” (THE TRUSTEES OF COLUMBIA UNIVERSITY IN THE CITY OF NEW YORK, priority 2022, published 2025).
“Also recorded” adds a separate entry of the source. Bridge positions count the residues as written; N and C are the ends. Ends that are not written are not given here.

Experiments:
WT mice = experiment: Marble burying assay after i.p. antagonist injection; type: in vivo, mouse; details: 2 mg/kg
Description: Chronic social Isolation: Mice were singly housed at 5 weeks of age for 7 weeks in standard cages. Control groups included mice isolated at 8 weeks of age for 2 weeks, or at 8 weeks of age for 7 weeks. An additional control group included mice socially isolated at 8 weeks of age for 7 weeks and regrouped at 15 weeks for 3 weeks.
All behavioral assays were performed after lights out (7 pm).
Marble burying: Standard cages were filled with fresh bedding to a depth of 2.5 in and 15 marbles were evenly spaced across the bedding. […] At the end of the assay, the number of marbles buried was estimated visually. A marble was considered buried if at least ¾ of its surface was covered by the bedding.
Peripheral antagonist injections: Injections of SRX246 (AVPR1A antagonist, 2 mg/kg, i.p.), SR49059 (AVPR1A antagonist, 2 mg/kg, i.p.), SSR149415 (AVPR1B antagonist, 2 mg/kg, i.p.), d(CH2)5Tyr(Me)-[Orn8]-vasotocin (Oxytocin receptor antagonist, 2 mg/kg, i.p.), or 1% DMSO (Sigma Aldrich, i.p.) were performed in WT adults.

central AVPR1A circuits = experiment: Food intake following amygdala injection of AVP; type: in vivo, mouse
AVPR1A^CeA neurons = experiment: Chemogenetic activation of AVPR1A^CeA neurons by CNO (cFos smFISH); type: in vivo, mouse; details: Avpr1a-Cre mice injected with the DREADD-Gq virus; single injection 1.5 mg/kg, i.p.
Source text: (A) Heat map for the expression of the 300 top genes at […], 7, 13 and 22 weeks of age (n=3). […] (D) Vgat and AVPR1A expression detected with smFISH in a coronal section of the CeA at bregma-1.34 mm. (E) Quantification of AVPR1A^CeA neurons. (F) AVPR1A-Cre::tdTomato reporter expression in a coronal section of the CeA at bregma-1.34 mm. (G-L) Chemogenetic activation of AVPR1A^CeA neurons. (G) Schematic of bilateral injections of AAV-DIO-DREADD-Gq-mCherry (closed circles) vs. AAV-DIO-mCherry controls (open circles) in the CeA of Avpr1a-Cre adult mice. (H) Expression of the viral mCherry reporter in the CeA. High-magnification image showing Avpr1a and cFos expression detected with smFISH 1 h after CNO injections in mice injected with control (lower panel) and DREADD-Gq-mCherry (upper panel) AAVs. (I-L) Effects of CNO injections on marble burying (I), time spent in the open arms of the EPM (J), time spent in the center of the open field (K), and distance traveled in the open field (L) in mice injected with control and DREADD-Gq AAVs (n=6-9). Data are presented as means+/−SEM in E.
We utilized a chemogenetic approach to overcome this technical issue that prevented direct comparisons of males and females. […]

WT and Avpr1a-/- females = experiment: Marble burying after bilateral intra-CeA AVP injection; type: in vivo, mouse; details: 1 ng AVP bilateral
Description: For cannulations, ophthalmic ointment and analgesics were administered (buprenorphine, 0.1 mg/kg or buprenorphine Ethiqa XR, 3.25 mg/kg, and carprofen, 5 mg/kg, subcutaneous). Two cannulas (Model C317GS, Plastics One) were placed by drilling holes at the following coordinates: +/−2.4 mm lateral, −1.4 mm anteroposterior and −4.6 mm ventral from Bregma. Implants were secured by dental cement and protected with a cap (Model C317DCS, Plastics One).
Marble burying: Standard cages were filled with fresh bedding to a depth of 2.5 in and 15 marbles were evenly spaced across the bedding. Animals were placed in the cage for 30 min and allowed to ambulate freely. At the end of the assay, the number of marbles buried was estimated visually. A marble was considered buried if at least ¾ of its surface was covered by the bedding.
Intra-amygdala AVP injections: Prior to marble burying, adult WT and Avpr1a^−/− females were bilaterally injected with 1 ng of AVP or 0.9% saline via in-dwelling cannulas using a Hamilton syringe (Hamilton 7635-01) connected to an injector (Model C317IS, Plastics One).

male rats = details: males; AVP delivered into the CeA (Hernandez et al., 2016; Hernandez-Perez et al., 2018); cited from earlier work

Compound: COc1ccc(S(=O)(=O)N2c3ccc(Cl)cc3[C@](O)(c3ccccc3Cl)[C@@H]2C(=O)N2CCC[C@H]2C(N)=O)cc1OC [SR49059]
- marble burying (WT mice; female WT mice exposed to >7 weeks CSIS starting at 5 or 8 weeks of age): had no effect
- marble burying (WT mice; male WT mice exposed to >7 weeks CSIS starting at 5 or 8 weeks of age): had no effect
- food intake: blockade of the anorexigenic effects of AVP (central AVPR1A circuits; AVP (0.3 ng) injected in the amygdala, peripheral injection of antagonist (Manning compound; SR49059 2 mg/kg)): does not restore food intake

Compound: d(CH2)5Tyr(Me)-[Orn8]-vasotocin [OXR antagonist]
- marble burying (15 min) (WT mice; female mice exposed to CSIS): did not affect behavior in females or males
- marble burying (15 min) (WT mice; male mice exposed to CSIS): did not affect behavior in females or males

Compound: C[N+]1([O-])CCN(C2=Nc3cc(Cl)ccc3Nc3ccccc32)CC1 [CNO, clozapine-N-oxide]
- activation of AVPR1A^CeA neurons (AVPR1A^CeA neurons): acutely activated AVPR1A^CeA neurons

Compound: AVP: AVP (vasopressin), the AVPR1A ligand, injected into the amygdala/CeA (CYFQNCPRG-NH2; disulfide 1-6; UniProt P01185 20-28, looked up)
- effect on food intake (central AVPR1A circuits; AVP 0.3 ng injected in the amygdala): anorexigenic effects
- marble burying / anxiety behavior (WT and Avpr1a-/- females; global knockout Avpr1a-/- females): had no effect
- marble burying / anxiety behavior (WT and Avpr1a-/- females; group housed WT females): trigger anxiety behavior in WT females; also recorded: increased marble burying
- anxiety-related behaviors (male rats): can induce anxiety-like behaviors in males; also recorded: increase anxiety-related behaviors in males; also recorded: elicited anxiety-related behaviors

Compound: COc1ccc(S(=O)(=O)N2C(=O)[C@@](c3ccccc3OC)(N3C[C@H](O)C[C@H]3C(=O)N(C)C)c3cc(Cl)ccc32)c(OC)c1 [AVPR1B antagonist]
- marble burying (15 min) (WT mice; female mice exposed to CSIS): did not affect behavior in females or males
- marble burying (15 min) (WT mice; male mice exposed to CSIS): did not affect behavior in females or males
